# In publication PMC3440086, “Profiling Environmental Chemicals for Activity in the Antioxidant Response Element Signaling Pathway Using a High Throughput Screening Approach” (Environmental Health Perspectives, 2012):
# “Also recorded” adds a separate entry of the source. Structures can show the parent of a compound that is named as a salt. Where two headings read alike, the source gives them in different places.
# Tests used:
# [1] = system: antioxidant response element (ARE) signaling pathway; assay: ARE-bla β-lactamase reporter gene assay in HepG2 cells (qHTS); format: cell-based, human; conditions: for EC50: read-out: ARE-bla EC50
# [2] = system: Nrf2-dependent ARE transcriptional activity; assay: ARE-luc luciferase reporter gene assay in HepG2 cells (qHTS); format: cell-based; parameters: Emax: reference not given here; conditions: for EC50: read-out: ARE-luc EC50
# mutated ARE = format: cell-based
# olfactory mucosa = system: olfactory mucosa; parameters: method as in Genter et al. 2002; conditions: olfactory mucosa of treated rats; ref Genter et al. 2002; cited from earlier work
# [3] = system: hypoxia-inducible factor 1; parameters: method as in Xia et al. 2009; conditions: β-lactamase reporter gene assay; ref Xia et al. 2009; cited from earlier work
# ROS = system: ROS; parameters: method as in Chen et al. 2009; conditions: cell-based testing; ref Chen et al. 2009; cited from earlier work
# [4] = Homo sapiens, HepG2, confirmation/follow-up studies, activation of ARE reporter as % of positive control (β-napthoflavone), read-out: ARE-bla Efficacy
# [5] = Homo sapiens, confirmation/follow-up studies, HepG2, 16 hr exposure, mean ± SD
# [6] = Homo sapiens, HepG2, confirmation/follow-up studies, activation of ARE reporter as % of positive control (β-napthoflavone), read-out: ARE-luc Efficacy
# [7] = confirmation/follow-up studies, HepG2, mean ± SD
# [8] = confirmation/follow-up studies, HepG2, 16 hr exposure, mean ± SD
# [9] = confirmation/follow-up studies, […]
# [10] = follow-up studies, up to 46 µM, listed as iodochlorohydroxyquinoline
# [11] = primary qHTS screening, 0.59 nM to 92 µM
# [12] = follow-up studies, up to 46 µM, listed as melphalan
# [13] = Homo sapiens, HepG2, read-out: ARE-bla Efficacy
# [14] = Homo sapiens, HepG2, read-out: ARE-luc Efficacy
# [15] = follow-up studies, up to 46 µM, listed as quinoline
# [16] = confirmation/follow-up studies, activation of ARE reporter as % of positive control (β-napthoflavone)
smiles,measurement,setting,value
CCc1cccc(CC)c1N(COC)C(=O)CCl [Alachlor],Emax,[1]; [4],106%
same,EC50,[1]; [5],5.9 ± 1.7 µM
same,activity in ARE-bla assay (words),"[1]; follow-up studies, up to 46 µM",active; also recorded: demonstrated activity
same,Emax,[2]; [6],127%
same,EC50,[2]; [5],19.9 ± 7.1 µM
same,activity in ARE-luc assay (words),"[2]; follow-up studies, up to 46 µM",active; also recorded: demonstrated activity
same,ARE-bla mutant IC50,mutated ARE; [7],inactive
same,genes associated with the generation of ROS and resulting oxidative damage,olfactory mucosa,up-regulation
c1ccc2c(c1)-c1cccc3cccc-2c13 [Fluoranthene],ARE-bla EC50,[1],inactive
same,ARE-luc EC50,[2],inactive
same,ARE-bla mutant IC50,mutated ARE,inactive
C/C=C1/C(=O)C[C@H]2[C@@H]3CCC4=CC(=O)CC[C@]4(C)[C@H]3CC[C@]12C [Guggulsterones E],ARE-bla Efficacy,[1],106
same,EC50,[1],5 ± 3.1 µM
same,ARE-luc Efficacy,[2],115
same,EC50,[2],15.4 ± 2.6 µM
same,ARE-bla mutant IC50,mutated ARE,inactive
[Cl][In]([Cl])[Cl] [Indium trichloride],EC50,[1]; [8],14.8 ± 4.9 µM
same,ARE-bla Efficacy,[1]; [9],92%
same,EC50,[2]; [8],25 µM
same,ARE-luc Efficacy,[2]; [9],312%
same,ARE-bla mutant IC50,mutated ARE; [7],inactive
Oc1c(I)cc(Cl)c2cccnc12 [Iodochlorohydroxyquinoline],Emax,[1]; [4],41%
same,EC50,[1]; [5],17.2 ± 6 µM
same,activity in ARE-bla assay (words),"[1]; follow-up studies, up to 46 µM",active
same,activity in ARE-bla assay (words),[1]; [10],demonstrated activity
same,Emax,[2]; [6],147%
same,EC50,[2]; [5],10 ± 1.2 µM
same,activity in ARE-luc assay (words),"[2]; follow-up studies, up to 46 µM",active
same,activity in ARE-luc assay (words),[2]; [10],demonstrated activity
same,ARE-bla mutant Efficacy,"mutated ARE; confirmation/follow-up studies, normalized to DMSO (0%) and ARE-bla maximal β-napthoflavone response (100%)",21%
same,activity in ARE-bla-mut assay (words),mutated ARE; [10],may exhibit autofluorescence; also recorded: active; also recorded: demonstrated activity
same,activation of hypoxia-inducible factor 1,[3],activate
same,generation of ROS,ROS,confirmed
C[C@H](CCC(=O)O)[C@H]1CC[C@H]2[C@@H]3CC[C@@H]4C[C@H](O)CC[C@]4(C)[C@H]3CC[C@]12C [Lithocholic acid],Emax,[1]; [4],65%
same,EC50,[1]; [5],17.7 ± 5.7 µM
same,Emax,[2]; [6],61%
same,EC50,[2]; [5],21.9 ± 8.2 µM
same,activity in ARE-luc assay (words),"[2]; follow-up studies, up to 46 µM",active
same,activity in ARE-luc assay (words),[2]; [11],inactive
same,ARE-bla mutant IC50,mutated ARE,inactive
"N[C@@H](Cc1ccc(N(CCCl)CCCl)cc1)C(=O)O [Melphalan, reference compound]",activity in ARE-bla assay (words),"[1]; follow-up studies, up to 46 µM",inactive in all assays
same,activity in ARE-bla assay (words),[1]; [12],inactive across all assays
same,activity in ARE-bla assay (words),[1]; [11],showed activity
same,ARE-luc EC50,[2]; [8],inactive
same,activity in ARE-luc assay (words),"[2]; follow-up studies, up to 46 µM",inactive in all assays
same,activity in ARE-luc assay (words),[2]; [12],inactive across all assays
same,ARE-bla mutant IC50,mutated ARE; [7],inactive
same,activity in ARE-bla-mut assay (words),"mutated ARE; follow-up studies, up to 46 µM",inactive in all assays
same,activity in ARE-bla-mut assay (words),mutated ARE; [12],inactive across all assays
"CCN(CC)c1ccc(N)cc1 [N,N-Diethyl-p-phenylenediamine]",EC50,[1]; [8],18.7 ± 7.6 µM
same,ARE-bla Efficacy,[1]; [9],60%
same,ARE-luc EC50,[2]; [8],inactive
same,ARE-bla mutant IC50,mutated ARE; [7],inactive
"CN(C)c1ccc(N=O)cc1 [N,N-Dimethyl-p-nitrosoaniline]",EC50,"[1]; Homo sapiens, HepG2, 16 h",9.9 ± 3.4 µM
same,Emax,[1]; [13],82%
same,EC50,"[2]; Homo sapiens, HepG2, 16 h",29.2 ± 2 µM
same,Emax,[2]; [14],626%
same,ARE-bla mutant IC50,mutated ARE,inactive
"CN(C)c1ccc(N)cc1 [N,N-Dimethyl-p-phenylenediamine]",Emax,"[1]; Homo sapiens, HepG2, confirmation/follow-up studies, […], read-out: ARE-bla Efficacy",80%
same,EC50,[1]; [5],9.6 ± 0.6 µM
same,Emax,"[2]; Homo sapiens, HepG2, confirmation/follow-up studies, […], read-out: ARE-luc Efficacy",24%
same,EC50,[2]; [5],11.8 ± 4.4 µM
same,ARE-bla mutant IC50,mutated ARE; [7],inactive
CNc1ccc(O)cc1 [N-Methyl-p-aminophenol sulfate],Emax,[1]; [4],37%
same,EC50,[1]; [5],13.6 ± 3.2 µM
same,Emax,[2]; [6],202%
same,EC50,[2]; [5],24.6 ± 9.2 µM
same,ARE-bla mutant IC50,mutated ARE,inactive
NC(=S)Nc1ccccc1 [Phenylthiourea],ARE-bla EC50,[1]; [8],inactive
same,ARE-luc EC50,[2]; [8],inactive
same,ARE-bla mutant IC50,mutated ARE; [7],inactive
c1ccc2ncccc2c1 [Quinoline],ARE-bla EC50,[1]; [8],inactive
same,activity in ARE-bla assay (words),"[1]; follow-up studies, up to 46 µM",inactive in all assays
same,activity in ARE-bla assay (words),[1]; [15],inactive across all assays
same,ARE-luc EC50,[2]; [8],inactive
same,activity in ARE-luc assay (words),"[2]; follow-up studies, up to 46 µM",inactive in all assays
same,activity in ARE-luc assay (words),[2]; [15],inactive across all assays
same,ARE-bla mutant IC50,mutated ARE,inactive
same,activity in ARE-bla-mut assay (words),mutated ARE,inactive across all assays; also recorded: inactive in all assays
"Clc1ccc(C(c2ccc(Cl)cc2)C(Cl)Cl)cc1 [Rhothane (TDE), Tetrachlorodiphenylethane]",EC50,[1]; [8],16.4 ± 7.3 µM
same,ARE-bla Efficacy,[1]; [16],43%
same,EC50,[2]; [8],13.5 ± 3.3 µM
same,ARE-luc Efficacy,[2]; [16],32%
same,activity in ARE-luc assay (words),"[2]; follow-up studies, up to 46 µM",active
same,activity in ARE-luc assay (words),[2]; [11],inactive
same,ARE-bla mutant IC50,mutated ARE; [7],inactive
C[C@H](CCC(=O)[O-])[C@H]1CC[C@H]2[C@@H]3[C@H](O)C[C@@H]4C[C@H](O)CC[C@]4(C)[C@H]3C[C@H](O)[C@]12C.[Na+] [Sodium Cholate],ARE-bla EC50,[1]; [8],inactive
same,ARE-luc EC50,[2]; [8],inactive
same,ARE-bla mutant IC50,mutated ARE; [7],inactive
O=c1n(CC2CO2)c(=O)n(CC2CO2)c(=O)n1CC1CO1 (stereo not shown) [Teroxironum],ARE-bla Efficacy,[1],119
same,EC50,[1],5.9 ± 1.9 µM
same,ARE-luc Efficacy,[2],1541
same,EC50,[2],27.1 ± 1.8 µM
same,ARE-bla mutant IC50,mutated ARE,inactive
C=CC(=O)OCCOCCOCCOCCOC(=O)C=C [Tetraethylene glycol diacrylate],Emax,[1]; [4],53%
same,EC50,[1]; [5],9.5 ± 4.8 µM
same,Emax,[2]; [6],288%
same,EC50,[2]; [5],29.2 ± 2 µM
same,ARE-bla mutant IC50,mutated ARE; [7],inactive
CN(C)C(=S)SSC(=S)N(C)C [Tetramethylthiuram disulfide],EC50,[1]; [8],17.2 ± 4.9 µM
same,ARE-bla Efficacy,[1]; [9],35%
same,EC50,[2]; [8],30.6 ± 5.2 µM
same,ARE-luc Efficacy,[2]; [9],265%
same,ARE-bla mutant IC50,mutated ARE; [7],inactive
"CC(C)CC(C)Nc1ccc(Nc2ccccc2)cc1 (stereo not shown) [n-(1,3-Dimethylbutyl)-n`-phenyl-p-phenylenediamine]",Emax,[1]; [4],89%
same,EC50,[1]; [5],17.3 ± 5 µM
same,activity in ARE-luc assay (words),"[2]; follow-up studies, up to 46 µM",inactive
same,activity in ARE-luc assay (words),[2]; [11],active
same,ARE-bla mutant IC50,mutated ARE; [7],inactive
Nc1ccccc1O [o-Aminophenol],EC50,"[1]; Homo sapiens, HepG2, 16 h",6.8 ± 4.1 µM
same,Emax,[1]; [13],95%
same,EC50,"[2]; Homo sapiens, HepG2, 16 h",26.2 ± 3.3 µM
same,Emax,[2]; [14],234%
same,ARE-bla mutant IC50,mutated ARE,inactive
Nc1ccccc1N [o-Phenylenediamine],EC50,[1]; [8],7.2 ± 4.1 µM
same,ARE-bla Efficacy,[1]; [9],72%
same,EC50,[2]; [8],27.3 ± 4.7 µM
same,ARE-luc Efficacy,[2]; [9],151%
same,ARE-bla mutant IC50,mutated ARE; [7],inactive
"ClC(Cl)=C(c1ccc(Cl)cc1)c1ccc(Cl)cc1 [p,p' -DDE, Dichlorodiphenyl dichloroethylene]",ARE-bla EC50,[1]; [8],inactive
same,ARE-luc EC50,[2]; [8],inactive
same,ARE-bla mutant IC50,mutated ARE; [7],inactive
O=Nc1ccc(Nc2ccccc2)cc1 [p-Nitrosodiphenylamine],ARE-bla Efficacy,[1],31
same,EC50,[1],9.7 ± 4.1 µM
same,ARE-luc Efficacy,[2],71
same,EC50,[2],21.7 ± 3.7 µM
same,ARE-bla mutant IC50,mutated ARE,inactive
